Assay results published in US6025376A, “Chiral methylphenyloxazolidinones” (Schering Aktiengesellschaft, priority 1995, dated 2000).

Experiments:
[1] = tested on: phosphodiesterase type IV (PDE IV); experiment: Grooming reaction in rats (characteristic of PDE IV inhibitors); assay type: in vivo, male Wistar rats; conditions: observed 15-75 minutes after injection, MED = lowest dose with statistically significant effect
Description: (§1) The improved effectiveness of the new chiral methylphenyloxazolidinone derivatives in comparison with the racemate can be shown based on the head twitch and grooming reactions in rats that are characteristic of phosphodiesterase type IV (PDE IV) inhibitors. The racemate and the appropriate enantiomers were administered intraperitoneally (i.p.) to male Wistar rats and the occurrence of head twitches and grooming for 15-75 minutes after injection was detected by observation.
(§2) MED: Minimum effective dose, i.e., the lowest dose that ensures a statistically significant effect.

[2] = tested on: phosphodiesterase type IV (PDE IV); experiment: Head-twitch test in rats (characteristic of PDE IV inhibitors); assay type: in vivo, male Wistar rats; conditions: observed 15-75 minutes after injection, MED = lowest dose with statistically significant effect
Description: as §1, §2

[3] = biological target: 3H-Rolipram bond in brain homogenates; experiment: Displacement of radiolabeled Rolipram in brain homogenates; assay type: binding; conditions: calculated from IC50: Ki = IC50/[1+(L/KD)]
Description: The action of the enantiomers on the central nervous system was studied in vitro by examining their capacity to displace radiolabeled Rolipram in brain homogenates (Europ. Journ. of Pharmac. Vol. 127, 105-115 (1986)). The IC50 values (the concentration at which 50% inhibition action occurs) were converted to inhibition constant Ki, which is calculated according to the following formula: […]
in which L means the concentration of the radioactive tracer and KD means the dissociation constant of the ^3 H-Rolipram bond, which is determined separately.

TNF-α release = experiment: Inhibition of LPS-stimulated TNF-α release from macrophage cell line RAW 264 (Elisa); assay type: cell-based, murine; conditions: Mus musculus, RAW264.7, 30 min preincubation, LPS 10 ng/ml, 18 hours
Description: A murine macrophage cell line (RAW 264) was preincubated for 30 minutes in the presence and in the absence of various concentrations of PDE-IV inhibitors and then stimulated with LPS (10 ng/ml). 18 hours after stimulation, the culture medium was removed, and the TNF-α release was measured with a specific Elisa test. The test can be obtained from various companies, i.a., from the British biotechnology company Genzyme, and it is carried out as the manufacturer describes.

SMILES	Grooming MED i.p. [1]	Head-Twitch Test MED i.p. [2]	Ki [3]	IC50 (TNF-α release)
COc1ccc(C2(C)CNC(=O)O2)cc1OC1CCCC1 (racemic) [(R,S) - 1, (R,S)-5-(3-Cyclopentyloxy-4-methoxyphenyl)-5-methyl-2-oxazolidinone]	0.1 mg/kg	1.56 mg/kg	0.57 nM	–
CCCOc1cc(C2(C)CNC(=O)O2)ccc1OC (racemic) [(RS) - 2, (R,S)-5-(4-Methoxy-3-propoxyphenyl)-5-methyl-2-oxazolidinone]	–	–	0.61 nM	500 nM
CCOc1cc(C2(C)CNC(=O)O2)ccc1OC (racemic) [Ethyl- Racemate, (R,S)-5-(3-Ethoxy-4-methoxyphenyl)-5-methyl-2-oxazolidinone]	–	–	0.68 nM	–
COc1ccc([C@]2(C)CNC(=O)O2)cc1OC1CCCC1 [(R) - (-) - 1, (R)-(-)-5-(3-Cyclopentyloxy-4-methoxyphenyl)-5-methyl-2-oxazolidinone]	0.1 mg/kg	0.39 mg/kg	0.34 nM	–
CCCOc1cc([C@]2(C)CNC(=O)O2)ccc1OC [(R) - (-) - 2, (R)-(-)-5-(4-Methoxy-3-propoxyphenyl)-5-methyl-2-oxazolidinone]	–	–	0.24 nM	250 nM
COc1ccc([C@@]2(C)CNC(=O)O2)cc1OC1CCCC1 [(S) - (+) - 1, (S)-(+)-5-(3-Cyclopentyloxy-4-methoxyphenyl)-5-methyl-2-oxazolidinone]	6.25 mg/kg	6.25 mg/kg	3 nM	–
CCCOc1cc([C@@]2(C)CNC(=O)O2)ccc1OC [(S) - (+) - 2, (S)-(+)-5-(4-Methoxy-3-propoxyphenyl)-5-methyl-2-oxazolidinone]	–	–	16 nM	2500 nM
CCOc1cc([C@]2(C)CNC(=O)O2)ccc1OC [Ethyl- (R)-(-)-Isomer, (R)-(-)-5-(3-Ethoxy-4-methoxyphenyl)-5-methyl-2-oxazolidinone]	–	–	0.33 nM	–
CCOc1cc([C@@]2(C)CNC(=O)O2)ccc1OC [Ethyl- (S)-(+)-Isomer, (S)-(+)-5-(3-Ethoxy-4-methoxyphenyl)-5-methyl-2-oxazolidinone]	–	–	20 nM	–
